Patent publication US20230183237A1, “COMPETITIVE AND NONCOMPETITIVE INHIBITORS OF THE MUSCARINIC ACETYLCHOLINE RECEPTOR M5” (Vanderbilt University, priority 2020, published 2023)

target: T1, hM5 (Homo sapiens, UniProt P08912); experiment: Calcium mobilization concentration-response (IC50 vs EC80 acetylcholine), CHO hM5; assay type: cell-based; settings: CELL LINE hM5; calcium mobilization, EC80 acetylcholine addition; read-out: IC50
T1 construct: expressed in transfected cells
T1 sequence (P08912 1-532): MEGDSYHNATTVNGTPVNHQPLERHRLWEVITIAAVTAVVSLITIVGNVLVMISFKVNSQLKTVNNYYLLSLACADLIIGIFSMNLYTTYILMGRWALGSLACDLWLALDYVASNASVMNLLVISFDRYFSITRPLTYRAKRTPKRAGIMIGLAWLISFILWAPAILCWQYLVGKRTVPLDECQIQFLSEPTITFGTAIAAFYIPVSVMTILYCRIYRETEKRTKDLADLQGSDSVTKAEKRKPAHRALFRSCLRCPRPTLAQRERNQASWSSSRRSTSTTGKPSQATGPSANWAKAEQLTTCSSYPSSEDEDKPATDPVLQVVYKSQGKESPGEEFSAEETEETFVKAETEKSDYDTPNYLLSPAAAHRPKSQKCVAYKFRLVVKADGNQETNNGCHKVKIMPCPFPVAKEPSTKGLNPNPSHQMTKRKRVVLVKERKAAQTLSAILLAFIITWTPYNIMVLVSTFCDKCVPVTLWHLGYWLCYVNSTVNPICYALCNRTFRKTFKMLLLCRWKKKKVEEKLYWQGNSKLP
Procedure: Initial, single point (10 μM) compound characterization was performed in stable Chinese Hamster Ovary (CHO) cell lines constitutively expressing human M5 receptors. These were plated at 15,000 cells per 20 μL per well in Greiner 384-well black-walled, TC-treated, clear-bottomed plates (Fisher) in Ham's F12 medium supplemented with 10% FBS and 20 mM HEPES. Cells were incubated overnight at 37° C. under 5% CO2. The following day, medium was exchanged with assay buffer (Hank's Balanced Salt Solution supplemented with 20 mM HEPES and 2.5 mM Probenecid, pH 7.4) leaving 20 μL of assay buffer in each well. […] The cells were then incubated 50 minutes at 37° C. under 5% CO2. The assay buffer plus dye was then exchanged with fresh assay buffer leaving a volume of 20 μL in each well. Test compounds were diluted into assay buffer to a 2X (20 μM) concentration in 0.2% dimethylsulfoxide (DMSO) in columns 3-22 with matching DMSO concentration in columns 1, 2, 23, and […]; compounds were added to the assay for a final concentration of 10 μM and a final DMSO concentration of 0.1%.
Either an FDSS (Hamamatsu) or Panoptic (WaveFront Biosciences) kinetic imaging plate reader was used for assay execution and measurement of calcium flux. After establishing baseline fluorescence, test compounds (20 μL) were added to the cells using the reader's integrated pipettor and allowed to equilibrate for 140 seconds before addition of the […] concentration of acetylcholine (10 μL) along with vehicle in selected DMSO-only wells in the outer two columns . […] The raw fluorescence data from each well was normalized to the corresponding initial fluorescence reading (static ratio). The maximum fluorescence value following each addition was determined and the minimum value within that same timeframe was subtracted for each well then normalized to the average of the ECffiax maximum-minimum response, providing a % AChmax value for each addition for each well. The single point values represent mean values determined within the ECsu addition timeframe obtained from at least three independent determinations performed in triplicate or greater (error bars represent +/−SEM) unless otherwise specified.
CHO cells stably expressing hM1, hM2/Gqi5, hM3, hM4/Gqi5, hM5, rM1/Gqi5, rM3, rM4/Gqi5, or rM5 were plated in the manner described above. […] FDSS protocols were carried out as described above; the static ratio was calculated and the minimum response subtracted from the maximum response within the timeframe of each addition. This max-min response was then normalized to the maximum acetylcholine response. Calculation of IC50 was performed using the percent maximum acetylcholine response for the EC80 addition through the Vortex and Studies modules of the Dotmatics data management software. Results are stored in the Dotrnatics database and an audit trail of any changes to their analysis is generated. Data shown represent mean values obtained from at least three independent determinations performed in triplicate or greater (error bars represent±SEM) unless otherwise specified.

Row | SMILES | IC50
1 | Cc1cc2ncnn2cc1[C@@H]1CCN(S(=O)(=O)c2cn(C)nc2C)C[C@H]1F (racemic) [Compound 172, (rac)-6-(trans-1-((1,3-dimethyl-1H-pyrazol-4-yl)sulfonyl)-3-fluoropiperidin-4-yl)-7-methyl-[1,2,4]triazolo[1,5-a]pyridine] | 275 nM
2 | Cc1cc2ncnn2cc1[C@@H]1CCN(S(=O)(=O)c2cnn(C)c2C)C[C@H]1F (racemic) [Compound 174, (rac)-6-(trans-1-((1,5-Dimethyl-1H-pyrazol-4-yl)sulfonyl)-3-fluoropiperidin-4-yl)-7-methyl-[1,2,4]triazolo[1,5-a]pyridine] | 20 nM
3 | Cc1cc2ncnn2cc1[C@@H]1CCN(S(=O)(=O)c2cnn(C)c2C)C[C@H]1O (racemic) [Compound 197, (rac)-trans-1-((1,5-dimethyl-1H-pyrazol-4-yl)sulfonyl)-4-(7-methyl-[1,2,4]triazolo[1,5-a]pyridin-6-yl)piperidin-3-ol] | 594 nM
4 | Cc1cc2ncnn2cc1[C@@H]1CCN(S(=O)(=O)c2cnn3c2CCCC3)C[C@H]1O (racemic) [Compound 270, (rac)-trans-4-(7-methyl-[1,2,4]triazolo[1,5-a]pyridin-6-yl)-1-((4,5,6,7-tetrahydropyrazolo[1,5-a]pyridin-3-yl)sulfonyl)piperidin-3-ol] | 105 nM
5 | Cc1cc2ncnn2cc1[C@@H]1CCN(S(=O)(=O)c2cnn(C)c2Cl)C[C@H]1O (racemic) [Compound 282, (rac)-trans-1-((5-Chloro-1-methyl-1H-pyrazol-4-yl)sulfonyl-4-(7-methyl-[1,2,4]triazolo[1,5-a]pyridin-6-yl)piperidin-3-ol] | 103 nM
6 | O=S(=O)(c1ccc2ncsc2c1)N1CCC(c2ccncc2)CC1 [Compound 1, 6-((4-(pyridin-4-yl)piperidin-1-yl)sulfonyl)benzo[d]thiazole] | > 10000 nM
7 | O=S(=O)(c1ccc2c(c1)CCO2)N1CCC(c2ccncc2)CC1 [Compound 2, 4-(1-((2,3-dihydrobenzofuran-5-yl)sulfonyl)piperidin-4-yl)pyridine] | > 10000 nM

same assay, conditions: CELL LINE hM5; vs EC80 acetylcholine; read-out: IC50

Row | SMILES | IC50
8 | CO[C@@H]1CN(S(=O)(=O)c2cnn(C)c2C)CC[C@H]1c1cn2ncnc2cc1C (racemic) [Compound 411, (rac)-6-(trans-1-((1,5-dimethyl-1H-pyrazol-4-yl)sulfonyl)-3-methoxypiperidin-4-yl)-7-methyl-[1,2,4]triazolo[1,5-a]pyridine] | 288 nM
9 | CO[C@@H]1CN(S(=O)(=O)c2cnn(C)c2Cl)CC[C@H]1c1cn2ncnc2cc1C (racemic) [Compound 413, (rac)-6-(trans-1-((5-chloro-1-methyl-1H-pyrazol-4-yl)sulfonyl)-3-methoxypiperidin-4-yl)-7-methyl-[1,2,4]triazolo[1,5-a]pyridine] | 268 nM
10 | CO[C@@H]1CN(S(=O)(=O)c2cnn3c2OCCC3)CC[C@H]1c1cn2ncnc2cc1C (racemic) [Compound 414, (rac)-3-((trans-3-methoxy-4-(7-methyl-[1,2,4]triazolo[1,5-a]pyridin-6-yl)piperidin-1-yl)sulfonyl)-6,7-dihydro-5H-pyrazolo[5,1-b][1,3]oxazine] | 1460 nM
11 | CO[C@@H]1CN(S(=O)(=O)c2cnn(C)c2Cl)CC[C@H]1c1cn2ncnc2cc1C (single isomer, unassigned) [Compound 459] | 268 nM
12 | CO[C@H]1CN(S(=O)(=O)c2cnn(C)c2Cl)CC[C@@H]1c1cn2ncnc2cc1C (single isomer, unassigned) [Compound 460] | > 10000 nM
13 | COc1c(S(=O)(=O)N2CCC(c3cn4ncnc4cc3Cl)CC2)c(I)nn1C (single isomer, unassigned) [Compound 625, 7-Chloro-6-(1-((3-iodo-5-methoxy-1-methyl-1H-pyrazol-4-yl)sulfonyl)piperidin4-yl)-[1,2,4]triazolo[1,5-a]pyridine] | 27 nM
14 | COc1nn(C)c(I)c1S(=O)(=O)N1CCC(c2cn3ncnc3cc2Cl)CC1 (single isomer, unassigned) [Compound 626, 7-chloro-6-(1-((5-iodo-3-methoxy-1-methyl-1H-pyrazol-4-yl)sulfonyl)piperidin-4-yl)-[1,2,4]triazolo[1,5-a]pyridine] | 37 nM
